# Source: patent US20250066349A1 (Prothena Biosciences Limited, priority 2021, published 2025)
# Like-named read-outs stand apart in the source and are kept apart here.
# Biological target: DYRK1A (Homo sapiens (Human), UniProt Q13627)
# Assay: DYRK1A Inhibition Assay
# Assay type: biochemical
# Conditions: DYRK1A 1 nM, ATP 20 μM, Ser/Thr 18 peptide 2 μM, 90 minutes, read-out: DYRK1 IC50
# Procedure: DYRK1A—Invitrogen #PV4105
# • Ser/Thr 18 peptide—Invitrogen #PR8227U • Phos-Ser/Thr 18 peptide—Invitrogen #PR8229U • Assay plate—PerkinElmer #6007279 • ATP—Sigma #A7699-5G • Development reagent A—Invitrogen #PR5194B • Development buffer—Invitrogen #PR4876B Compound preparation • 1. Test compounds were diluted to 1 mM in DMSO • 2. Stock was further diluted 3-fold using Echo platform • 3. 100 nL of DMSO into Columns 1 and 24 and 100 nL of compounds dilutions to Columns 2-23 in a plate.
# • 1. Add 5 μL enzyme & substrate mixture to each well in Column 2-23 and A24-H24 wells of the 384-well assay plate; • 2. Add 5 μL 0% Phosphorylation control to A1-H1 and I24-P24 wells of the assay plate; • 3. Add 5 μL 100% Phosphorylation control to I1-P1 wells of the assay plate; • 4. Spin the assay plate (1000 rpm, 1 minute @23° C.); • 5. Incubate enzyme with compounds for 15 minutes at 23° C.; • 6. Add 5 μL ATP solution to each well of the assay plate; • 7. Spin the plate (1000 rpm, 1 minute @23° C.); • 8. Incubate the assay plate for 90 minutes at 23° C.; • 9. Add 10 μL Development reagent A to each well of the assay plate; • 10. Centrifuge the plate at 1000 rpm about 15 seconds and seal a film over assay plate. Incubate the assay plate for 30 minutes at 23° C. • 11. Read assay plates on Envision (see Tables A-D).
# Final Compound Concentrations
# • Assay buffer: 50 mM Hepes pH7.5, 10 mM MgCl2, 1 mM EDTA, 0.01% Brij-35 • DYRK1A: 1 nM • ATP: 20 μM • Ser/Thr 18 peptide: 2 μM • Reaction time: 90 minutes
IC50 (Compounds of Formula (I)) [nM],Structure (SMILES),further results
,CN1CCC(C(=O)Nc2ncc(-c3ccc4ncoc4c3)s2)CC1 [Compound 1],IC50 (Compounds of Formula (III)): 50 to 200 nM
10 to 100,"Cn1cc(-c2ccc3cnc4[nH]cc(-c5ccc(F)cc5)c4c3c2)cn1 [Compound 2, 1-(4-fluorophenyl)-8-(1-methyl-1H-pyrazol-4-yl)-3H-pyrrolo[2,3-c]isoquinoline]",
10 to 100,"Fc1ccc(-c2c[nH]c3ncc4ccc(-c5cn[nH]c5)cc4c23)cc1 [Compound 3, 1-(4-fluorophenyl)-8-(1H-pyrazol-4-yl)-3H-pyrrolo[2,3-c]isoquinoline]",
,CN1CCC(c2cc3c(-c4cc5scnc5cn4)ccnc3[nH]2)CC1 [Compound 4],IC50 (Compounds of Formula (II)): 100 to 1000 nM
,O=c1oc2cc3cnccc3cc2n1CCc1nc2ccccc2[nH]1 [Compound 4],IC50 (Compounds of Formula (IV)): 1000 to 5000 nM
,CN1CCC(C(=O)Nc2ncc(-c3ccc4sncc4c3)s2)CC1 [Compound 5],IC50 (Compounds of Formula (III)): 200 to 1000 nM
,CN1CCC(c2nc3c(-c4cn(C)c5cnccc45)ccnc3[nH]2)CC1 [Compound 5],IC50 (Compounds of Formula (II)): 10 to 100 nM
,Cn1ncc2cc3[nH]c(=O)n(-c4cccc(O)c4)c3cc21 [Compound 5],IC50 (Compounds of Formula (IV)): 500 to 1000 nM
10 to 100,OCc1ccc2c(cnc3[nH]cc(-c4ccc(F)cc4)c32)c1 [Compound 5],
10 to 100,"Cn1cc(-c2ccc3cnc4[nH]ncc4c3c2)cn1 [Compound 7, 8-(1-methyl-1H-pyrazol-4-yl)-3H-pyrazolo[3,4-c]isoquinoline]",
,CC(=O)N1CCc2c(cnc3[nH]cc(-c4ccncc4)c23)C1 [Compound 7],IC50 (Compounds of Formula (IV)): 500 to 1000 nM
,Cn1ncc2ccc(-c3cnc(C#CC4CCNCC4)s3)cc21 [Compound 7],IC50 (Compounds of Formula (III)): 50 to 200 nM
,CC(=O)N1CCc2c(cnc3[nH]cc(-c4cccnc4)c23)C1 [Compound 8],IC50 (Compounds of Formula (IV)): 1000 to 5000 nM
,CN1CCC(C#Cc2ncc(-c3ccc4cnn(C)c4c3)s2)CC1 [Compound 8],IC50 (Compounds of Formula (III)): 50 to 200 nM
100 to 1000,"CN1CCN(C(=O)c2c[nH]c3ncc4ccc(-c5cccnc5)cc4c23)CC1 [Compound 10, (4-methylpiperazin-1-yl)(8-(pyridin-3-yl)-3H-pyrrolo[2,3-c]isoquinolin-1-yl)methanone]",
,CC(=O)N1CCc2c(cnc3[nH]cc(-c4cccc(Cl)c4)c23)C1 [Compound 10],IC50 (Compounds of Formula (IV)): 1000 to 5000 nM
100 to 1000,"O=c1[nH]c2ncc3ccc(-c4cccnc4)cc3c2n1Cc1cccnc1 [Compound 11, 8-(pyridin-3-yl)-1-(pyridin-3-ylmethyl)-1,3-dihydro-2H-imidazo[4,5-c]isoquinolin-2-one]",
,O=c1[nH]c2cc3c(cc2o1)[nH]c(=O)n3-c1cccc(O)c1 [Compound 11],IC50 (Compounds of Formula (IV)): 1000 to 5000 nM
10 to 100,"Cn1cc(-c2ccc3cnc4[nH]cc(C(=O)N5CCNCC5)c4c3c2)cn1 [Compound 12, (8-(1-methyl-1H-pyrazol-4-yl)-3H-pyrrolo[2,3-c]isoquinolin-1-yl)(piperazin-1-yl)methanone]",
,COc1cc(-c2ccc3c4c([nH]c(=O)c3c2)CN(C)CC4)ccc1F [Compound 12],IC50 (Compounds of Formula (IV)): 1000 to 5000 nM
,CN1CCc2c([nH]c(=O)c3cc(-c4ccnc5c4CCO5)ccc23)C1 [Compound 13],IC50 (Compounds of Formula (IV)): 1000 to 5000 nM
10 to 100,"Cn1cc(-c2ccc3cnc4[nH]c(=O)n(C5CC(O)C5)c4c3c2)cn1 (stereo not shown) [Compound 21, 1-(3-hydroxycyclobutyl)-8-(1-methyl-1H-pyrazol-4-yl)-1,3-dihydro-2H-imidazo[4,5-c]isoquinolin-2-one]",

IC50 (Compounds of Formula (I)) [nM],Structure (SMILES),further results
100 to 1000,"COC1CC(n2c(=O)[nH]c3ncc4ccc(-c5cnn(C)c5)cc4c32)C1 (stereo not shown) [Compound 22, 1-(3-methoxycyclobutyl)-8-(1-methyl-1H-pyrazol-4-yl)-1,3-dihydro-2H-imidazo[4,5-c]isoquinolin-2-one]",
≤ 10,CNC(=O)C1CCC(c2c[nH]c3ncc4ccc(-c5cnn(C)c5)cc4c23)CC1 (stereo not shown) [Compound 27],
≤ 10,"Cn1cc(-c2ccc3cnc4[nH]cc(C5CCC(C(=O)N6CCNCC6)CC5)c4c3c2)cn1 (stereo not shown) [Compound 28, (4-(8-(1-methyl-1H-pyrazol-4-yl)-3H-pyrrolo[2,3-c]isoquinolin-1-yl)cyclohexyl)(piperazin-1-yl)methanone]",
≤ 10,"Cn1cc(-c2ccc3cnc4[nH]cc(C5CCN(S(C)(=O)=O)CC5)c4c3c2)cn1 [Compound 29, 8-(1-methyl-1H-pyrazol-4-yl)-1-(1-(methylsulfonyl)piperidin-4-yl)-3H-pyrrolo[2,3-c]isoquinoline]",
100 to 1000,"Cn1c(=O)[nH]c2ncc(-c3ccc4cnsc4c3)cc21 [Compound 30, 6-(benzo[d]isothiazol-6-yl)-1-methyl-1,3-dihydro-2H-imidazo[4,5-b]pyridin-2-one]",
100 to 1000,"O=c1[nH]c2ncc(-c3ccc4cnsc4c3)cc2n1C1CCC1 [Compound 31, 6-(benzo[d]isothiazol-6-yl)-1-cyclobutyl-1,3-dihydro-2H-imidazo[4,5-b]pyridin-2-one]",
100 to 1000,"O=C(O)[C@H]1C[C@@H](c2c[nH]c3ncc4ccccc4c32)C1 [Compound 32, (1s,3s)-3-(3H-pyrrolo[2,3-c]isoquinolin-1-yl)cyclobutane-1-carboxylic acid]",
100 to 1000,"O=C(O)[C@H]1C[C@H](c2c[nH]c3ncc4ccccc4c32)C1 [Compound 33, (1r,3r)-3-(3H-pyrrolo[2,3-c]isoquinolin-1-yl)cyclobutane-1-carboxylic acid]",
100 to 1000,"O=C(O)C1CC(c2c[nH]c3ncc4ncccc4c23)C1 (stereo not shown) [Compound 34, 3-(3H-pyrrolo[3,2-f][1,7]naphthyridin-1-yl)cyclobutane-1-carboxylic acid]",
100 to 1000,"O=C(O)C1CC(c2c[nH]c3ncc4ccncc4c23)C1 (stereo not shown) [Compound 35, 3-(7H-pyrrolo[2,3-c][2,6]naphthyridin-9-yl)cyclobutane-1-carboxylic acid]",
100 to 1000,"O=C(O)[C@H]1C[C@@H](c2c[nH]c3ncc4cccnc4c32)C1 [Compound 36, (1s,3s)-3-(7H-pyrrolo[2,3-h][1,6]naphthyridin-9-yl)cyclobutane-1-carboxylic acid]",
10 to 100,"O=C(O)[C@H]1C[C@H](c2c[nH]c3ncc4cccnc4c32)C1 [Compound 37, (1r,3r)-3-(7H-pyrrolo[2,3-h][1,6]naphthyridin-9-yl)cyclobutane-1-carboxylic acid]",
10 to 100,"Cn1cc(-c2ccc3cnc4c(c(C5CCC5)cn4C)c3c2)cn1 [Compound 38, 1-cyclobutyl-3-methyl-8-(1-methyl-1H-pyrazol-4-yl)-3H-pyrrolo[2,3-c]isoquinoline]",
≤ 10,"Cn1cc(-c2ccc3cnc4[nH]c(C5CCNCC5)cc4c3c2)cn1 [Compound 39, 8-(1-methyl-1H-pyrazol-4-yl)-2-(piperidin-4-yl)-3H-pyrrolo[2,3-c]isoquinoline]",
≤ 10,"CN1CCC(c2cc3c(ncc4ccc(-c5cnn(C)c5)cc43)[nH]2)CC1 [Compound 40, 8-(1-methyl-1H-pyrazol-4-yl)-2-(1-methylpiperidin-4-yl)-3H-pyrrolo[2,3-c]isoquinoline]",
≤ 10,"Cc1c(C2CCNCC2)[nH]c2ncc3ccc(-c4cnn(C)c4)cc3c12 [Compound 41, 1-methyl-8-(1-methyl-1H-pyrazol-4-yl)-2-(piperidin-4-yl)-3H-pyrrolo[2,3-c]isoquinoline]",
≤ 10,"Cc1c(C2CCN(C)CC2)[nH]c2ncc3ccc(-c4cnn(C)c4)cc3c12 [Compound 42, 1-methyl-8-(1-methyl-1H-pyrazol-4-yl)-2-(1-methylpiperidin-4-yl)-3H-pyrrolo[2,3-c]isoquinoline]",
10 to 100,"CN1CCN(c2nccc3c2cnc2[nH]cc(-c4ccncc4)c23)CC1 [Compound 43, 6-(4-methylpiperazin-1-yl)-1-(pyridin-4-yl)-3H-pyrrolo[2,3-c][2, 7]naphthyridine]",
100 to 1000,"CN1CCC(c2nccc3c2cnc2[nH]cc(-c4ccncc4)c23)CC1 [Compound 44, 6-(1-methylpiperidin-4-yl)-1-(pyridin-4-yl)-3H-pyrrolo[2,3-c][2, 7]naphthyridine]",
10 to 100,"Cn1cc(-c2ccc3cnc4c(c3c2)c([C@H]2CC[C@@H](C(=O)O)CC2)cn4C)cn1 [Compound 46, 4-(3-methyl-8-(1-methyl-1H-pyrazol-4-yl)-3H-pyrrolo[2,3-c]isoquinolin-1-yl)cyclohexane-1-carboxylic acid]",
≤ 10,"Cn1cc(-c2ccc3cnc4c(c3c2)c([C@H]2CC[C@H](C(=O)O)CC2)cn4C)cn1 [Compound 47, 4-(3-methyl-8-(1-methyl-1H-pyrazol-4-yl)-3H-pyrrolo[2,3-c]isoquinolin-1-yl)cyclohexane-1-carboxylic acid]",
